# *1 amine or outer side, *2 acyl side, *3 side chain or, on linkers, in order; H or OH if unused. Where a SMILES comes first, the peptide text is derived from it. Bridges are numbered along the chain shown (N, C = ends). [ ]: non-standard residue; d: D form. The star is where a group is joined. Pro(3R,4S-CMe2) = CC1(C)[C@@H]2[C@@H](C(=O)O)NC[C@@H]21; Phe(4-guanidino) = N=C(N)Nc1ccc(C[C@H](N)C(=O)O)cc1; Pro(trans-4-Ph) = O=C(O)[C@@H]1C[C@@H](c2ccccc2)CN1; Trp(7-aza) = N[C@@H](Cc1c[nH]c2ncccc12)C(=O)O; Phe(4-CH2NH2) = NCc1ccc(C[C@H](N)C(=O)O)cc1; Pro(4S-NH2) = N[C@@H]1CN[C@H](C(=O)O)C1; Pro(4,4-F2) = O=C(O)[C@@H]1CC(F)(F)CN1; mXylylene = c1cc(C[*:1])cc(C[*:2])c1; Val(3-OH) = CC(C)(O)[C@H](N)C(=O)O; Myristoyl = CCCCCCCCCCCCCC(=O)*; Aad = N[C@@H](CCCC(=O)O)C(=O)O; Chg = N[C@H](C(=O)O)C1CCCCC1; Tle = CC(C)(C)[C@H](N)C(=O)O; NMeA = CN[C@@H](C)C(=O)O; Nva = CCC[C@H](N)C(=O)O; Mpa = O=C(O)CCS; Sar = CNCC(=O)O
# Molecular target: human PCSK9 / human LDLR EGFa domain interaction (Homo sapiens, UniProt Q8NBP7)
# Assay: TR-FRET assay of inhibition of the PCSK9-LDLR protein-protein interaction
# Assay type: binding
# Settings: 20 nM biotinylated human PCSK9 + 20 nM his-tagged human LDLR EGFa domain, 2 hours room temperature
# Experimental: A time-resolved fluorescence resonance energy (TR-FRET) assay was used to measure inhibition of the PCSK9-LDLR protein-protein interaction. Briefly, 20 nM avitag-biotinylated human PCSK9 was incubated with 20 nM his-tagged human LDLR EGFa domain in the presence of 5 nM LANCE Ulight Streptavidin (Perkin Elmer) and 5 nM europium-Anti-6×His (Perkin Elmer) for 2 hours covered at room temperature in buffer containing 50 mM HEPES, 150 mM NaCl, 5 mM CaCl2, 0.01% BSA and 0.01% Surfactant P20. Compounds were tested in dose-response and concentrations giving half-maximal inhibition calculated using a 4-parameter fit equation.
# Sequence of human PCSK9 / human LDLR EGFa domain interaction (Q8NBP7 153-692): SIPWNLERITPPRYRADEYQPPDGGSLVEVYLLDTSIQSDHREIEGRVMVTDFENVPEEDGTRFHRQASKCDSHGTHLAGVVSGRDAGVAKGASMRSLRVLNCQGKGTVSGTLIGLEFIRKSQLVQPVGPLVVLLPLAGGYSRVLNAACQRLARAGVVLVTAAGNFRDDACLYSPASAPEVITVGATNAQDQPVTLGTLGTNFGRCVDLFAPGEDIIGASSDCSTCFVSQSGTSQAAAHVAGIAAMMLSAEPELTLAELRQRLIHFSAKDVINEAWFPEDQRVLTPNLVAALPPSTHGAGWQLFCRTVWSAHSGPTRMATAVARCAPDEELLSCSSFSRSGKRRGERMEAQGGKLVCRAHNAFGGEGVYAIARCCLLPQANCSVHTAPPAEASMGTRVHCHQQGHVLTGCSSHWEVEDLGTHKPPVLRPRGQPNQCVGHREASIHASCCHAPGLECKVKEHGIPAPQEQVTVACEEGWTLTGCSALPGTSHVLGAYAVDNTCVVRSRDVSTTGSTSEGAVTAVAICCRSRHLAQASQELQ
# Sequence of human PCSK9 / human LDLR EGFa domain interaction (Q8NBP7 31-152 partner limits assumed): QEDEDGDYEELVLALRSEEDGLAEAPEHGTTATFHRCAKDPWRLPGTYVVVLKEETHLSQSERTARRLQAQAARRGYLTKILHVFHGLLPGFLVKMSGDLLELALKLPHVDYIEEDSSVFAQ
row,IC50 [nM],Compound
1,1000 to 12100,CCC[C@H](NC(C)=O)C(=O)N[C@H]1CSCc2cccc(c2)CSC[C@@H](C(N)=O)NC(=O)[C@H]([C@@H](C)O)NC(=O)[C@H](C2CCCCC2)NC(=O)[C@H](Cc2c[nH]c3ncccc23)NC(=O)[C@H](Cc2cnc[nH]2)NC(=O)[C@H](CCC(=O)O)NC(=O)[C@H](Cc2c[nH]c3ncccc23)NC(=O)[C@H]([C@@H](C)O)NC(=O)[C@H]2CCCN2C(=O)[C@H](Cc2ccc(O)cc2)NC(=O)[C@H](C(C)(C)C)NC1=O [Compound 001] (Ac-[Nva]C[Tle]Y[dP]T[Trp(7-aza)]EH[Trp(7-aza)][Chg]TC-NH2; linker 2-13 via mXylylene)
2,1 to 100,CCCCCCCCCCCCCC(=O)NCCCC[C@H](NC(C)=O)C(=O)N[C@@H](CCC)C(=O)N[C@H]1CSCc2cccc(c2)CSC[C@@H](C(N)=O)NC(=O)[C@H]([C@@H](C)O)NC(=O)[C@H](C2CCCCC2)NC(=O)[C@H](Cc2c[nH]c3ncccc23)NC(=O)[C@H](Cc2c[nH]cn2)NC(=O)[C@H](CCC(=O)O)NC(=O)[C@H](Cc2c[nH]c3ncccc23)NC(=O)[C@H]([C@@H](C)O)NC(=O)[C@@H]2CCCN2C(=O)[C@H](Cc2ccc(O)cc2)NC(=O)[C@H](C(C)(C)C)NC1=O [Compound 003] (Ac-K(Myristoyl)[Nva]C[Tle]YPT[Trp(7-aza)]EH[Trp(7-aza)][Chg]TC-NH2; linker 3-14 via mXylylene)
3,1000 to 12100,"CCC[C@@H]1NC(=O)[C@H](Cc2c[nH]c3ncccc23)NC(=O)[C@H]([C@@H](C)O)NC(=O)[C@@H]2CC(F)(F)CN2C(=O)[C@H](Cc2ccc(O)cc2)NC(=O)[C@H](C(C)(C)C)NC(=O)CCSCc2cccc(c2)CSC[C@@H](C(N)=O)NC(=O)[C@H]([C@@H](C)O)NC(=O)[C@H](CCC)NC(=O)[C@H](Cc2ccc(O)cc2)NC(=O)[C@H](CCC(=O)O)NC1=O [Compound 004] ([Mpa][Tle]Y[Pro(4,4-F2)]T[Trp(7-aza)][Nva]EY[Nva]TC-NH2; linker 1-12 via mXylylene)"
4,1000 to 12100,CCC[C@@H]1NC(=O)[C@H](Cc2c[nH]c3ncccc23)NC(=O)[C@H]([C@@H](C)O)NC(=O)[C@@H]2C[C@@H](c3ccccc3)CN2C(=O)[C@H](Cc2ccc(O)cc2)NC(=O)[C@H](C(C)(C)C)NC(=O)CCSCc2cccc(c2)CSC[C@@H](C(N)=O)NC(=O)[C@H]([C@@H](C)O)NC(=O)[C@H](CCC)NC(=O)[C@H](Cc2ccc(O)cc2)NC(=O)[C@H](CCC(=O)O)NC1=O [Compound 005] ([Mpa][Tle]Y[Pro(trans-4-Ph)]T[Trp(7-aza)][Nva]EY[Nva]TC-NH2; linker 1-12 via mXylylene)
5,1000 to 12100,CCC[C@H](NC(C)=O)C(=O)N[C@H]1CSCc2cccc(c2)CSC[C@@H](C(N)=O)NC(=O)[C@H]([C@@H](C)O)NC(=O)[C@H](C2CCCCC2)NC(=O)[C@H](Cc2c[nH]c3ncccc23)NC(=O)[C@H](Cc2cnc[nH]2)NC(=O)[C@H](CCC(=O)O)NC(=O)[C@H](Cc2c[nH]c3ncccc23)NC(=O)[C@H]([C@@H](C)O)NC(=O)[C@H](C)N(C)C(=O)[C@H](Cc2ccc(O)cc2)NC(=O)[C@H](C(C)(C)C)NC1=O [Compound 006] (Ac-[Nva]C[Tle]Y[NMeA]T[Trp(7-aza)]EH[Trp(7-aza)][Chg]TC-NH2; linker 2-13 via mXylylene)
6,1000 to 12100,CCC[C@H](NC(C)=O)C(=O)N[C@H]1CSCc2cccc(c2)CSC[C@@H](C(N)=O)NC(=O)[C@H]([C@@H](C)O)NC(=O)[C@H](C2CCCCC2)NC(=O)[C@H](Cc2c[nH]c3ncccc23)NC(=O)[C@H](Cc2c[nH]cn2)NC(=O)[C@H](CCC(=O)O)NC(=O)[C@H](Cc2c[nH]c3ncccc23)NC(=O)[C@H]([C@@H](C)O)NC(=O)CN(C)C(=O)[C@H](Cc2ccc(O)cc2)NC(=O)[C@H](C(C)(C)C)NC1=O [Compound 007] (Ac-[Nva]C[Tle]Y[Sar]T[Trp(7-aza)]EH[Trp(7-aza)][Chg]TC-NH2; linker 2-13 via mXylylene)
7,100 to 1000,"CCC[C@@H]1NC(=O)[C@H](Cc2c[nH]c3ncccc23)NC(=O)[C@H]([C@@H](C)O)NC(=O)[C@@H]2[C@@H]3[C@H](CN2C(=O)[C@H](Cc2ccc(O)cc2)NC(=O)[C@H](C(C)(C)C)NC(=O)CCSCc2cccc(c2)CSC[C@@H](C(N)=O)NC(=O)[C@H]([C@@H](C)O)NC(=O)[C@H](CCC)NC(=O)[C@H](Cc2ccc(O)cc2)NC(=O)[C@H](CCC(=O)O)NC1=O)C3(C)C [Compound 008] ([Mpa][Tle]Y[Pro(3R,4S-CMe2)]T[Trp(7-aza)][Nva]EY[Nva]TC-NH2; linker 1-12 via mXylylene)"
8,100 to 1000,CCC[C@@H]1NC(=O)[C@H](Cc2c[nH]c3ncccc23)NC(=O)[C@H]([C@@H](C)O)NC(=O)[C@@H]2C[C@H](N)CN2C(=O)[C@H](Cc2ccc(O)cc2)NC(=O)[C@H](C(C)(C)C)NC(=O)CCSCc2cccc(c2)CSC[C@@H](C(N)=O)NC(=O)[C@H]([C@@H](C)O)NC(=O)[C@H](C2CCCCC2)NC(=O)[C@H](Cc2ccc(O)cc2)NC(=O)[C@H](CCCC(=O)O)NC1=O [Compound 010] ([Mpa][Tle]Y[Pro(4S-NH2)]T[Trp(7-aza)][Nva][Aad]Y[Chg]TC-NH2; linker 1-12 via mXylylene)
9,100 to 1000,CCC[C@@H]1NC(=O)[C@H](Cc2c[nH]c3ncccc23)NC(=O)[C@H]([C@@H](C)O)NC(=O)[C@H](Cc2cnc[nH]2)NC(=O)[C@H](Cc2ccc(O)cc2)NC(=O)[C@H](C(C)(C)C)NC(=O)[C@@H](NC(C)=O)CCC(=O)NCc2ccc(cc2)C[C@@H](C(N)=O)NC(=O)[C@H]([C@@H](C)O)NC(=O)[C@H](CCC)NC(=O)[C@H](Cc2ccc(O)cc2)NC(=O)[C@H](CCC(=O)O)NC1=O [Compound 013] (Ac-E[Tle]YHT[Trp(7-aza)][Nva]EY[Nva]T[Phe(4-CH2NH2)]-NH2; lactam 1-12)
10,100 to 1000,CCC[C@@H]1NC(=O)[C@H](Cc2c[nH]c3ncccc23)NC(=O)[C@H]([C@@H](C)O)NC(=O)[C@H](Cc2cnc[nH]2)NC(=O)[C@H](Cc2ccc(O)cc2)NC(=O)[C@H](C(C)(C)C)NC(=O)CCSCc2cccc(c2)CSC[C@H](C(N)=O)NC(=O)[C@H]([C@@H](C)O)NC(=O)[C@H](C2CCCCC2)NC(=O)[C@H](Cc2ccc(O)cc2)NC(=O)[C@H](CCC(=O)O)NC1=O [Compound 043] ([Mpa][Tle]YHT[Trp(7-aza)][Nva]EY[Chg]T[dC]-NH2; linker 1-12 via mXylylene)
11,100 to 1000,CCC[C@@H]1NC(=O)[C@H](Cc2c[nH]c3ncccc23)NC(=O)[C@H]([C@@H](C)O)NC(=O)[C@H](Cc2cnc[nH]2)NC(=O)[C@H](Cc2ccc(O)cc2)NC(=O)[C@H](C(C)(C)C)NC(=O)CCSCc2cccc(c2)CSC[C@H](C(N)=O)NC(=O)[C@H](C(C)(C)O)NC(=O)[C@H](CCC)NC(=O)[C@H](Cc2ccc(O)cc2)NC(=O)[C@H](CCC(=O)O)NC1=O [Compound 044] ([Mpa][Tle]YHT[Trp(7-aza)][Nva]EY[Nva][Val(3-OH)][dC]-NH2; linker 1-12 via mXylylene)
12,100 to 1000,CCC[C@@H]1NC(=O)[C@H](Cc2c[nH]c3ncccc23)NC(=O)[C@H]([C@@H](C)O)NC(=O)[C@H](CCCCN)NC(=O)[C@H](Cc2ccc(O)cc2)NC(=O)[C@H](C(C)(C)C)NC(=O)CCSCc2cccc(c2)CSC[C@@H](C(N)=O)NC(=O)[C@H]([C@@H](C)O)NC(=O)[C@H](C2CCCCC2)NC(=O)[C@H](Cc2ccc(O)cc2)NC(=O)[C@H](CCC(=O)O)NC1=O [Compound 046] ([Mpa][Tle]YKT[Trp(7-aza)][Nva]EY[Chg]TC-NH2; linker 1-12 via mXylylene)
13,100 to 1000,CCC[C@@H]1NC(=O)[C@H](Cc2c[nH]c3ncccc23)NC(=O)[C@H]([C@@H](C)O)NC(=O)[C@H](CCC(=O)O)NC(=O)[C@H](Cc2ccc(O)cc2)NC(=O)[C@H](C(C)(C)C)NC(=O)CCSCc2cccc(c2)CSC[C@@H](C(N)=O)NC(=O)[C@H]([C@@H](C)O)NC(=O)[C@H](C2CCCCC2)NC(=O)[C@H](Cc2ccc(O)cc2)NC(=O)[C@H](CCCCN)NC1=O [Compound 047] ([Mpa][Tle]YET[Trp(7-aza)][Nva]KY[Chg]TC-NH2; linker 1-12 via mXylylene)
14,1000 to 12100,CCC[C@H](NC(=O)[C@H](Cc1c[nH]c2ncccc12)NC(=O)[C@H](NC(C)=O)[C@@H](C)O)C(=O)NC1CCC(=O)NCCCCCNC(=O)[C@H](Cc2ccc(O)cc2)NC(=O)[C@H](C(C)(C)C)NC(=O)CCSCc2cccc(c2)CSC[C@H](C(N)=O)NC(=O)[C@H]([C@@H](C)O)NC(=O)[C@H](C2CCCCC2)NC(=O)[C@H](Cc2ccc(O)cc2)NC1=O (stereo partly shown) [Compound 049]
15,100 to 1000,CCC[C@@H]1NC(=O)[C@H](Cc2c[nH]c3ncccc23)NC(=O)[C@H]([C@@H](C)O)NC(=O)[C@H](Cc2cnc[nH]2)NC(=O)[C@H](Cc2ccc(O)cc2)NC(=O)[C@H](C(C)(C)C)NC(=O)[C@@H](NC(=O)[C@H](CCCNC(=N)N)NC(C)=O)CSCc2cccc(c2)CSC[C@@H](C(N)=O)NC(=O)[C@H]([C@@H](C)O)NC(=O)[C@H](CCC)NC(=O)[C@H](Cc2ccc(O)cc2)NC(=O)[C@H](CCC(=O)O)NC1=O [Compound 050] (Ac-RC[Tle]YHT[Trp(7-aza)][Nva]EY[Nva]TC-NH2; linker 2-13 via mXylylene)
16,1000 to 12100,CCC[C@@H]1NC(=O)[C@H](Cc2ccc(NC(=N)N)cc2)NC(=O)[C@H]([C@@H](C)O)NC(=O)[C@H](Cc2cnc[nH]2)NC(=O)[C@H](Cc2ccc(O)cc2)NC(=O)[C@H](C(C)(C)C)NC(=O)CCSCc2cccc(c2)CSC[C@@H](C(N)=O)NC(=O)[C@H]([C@@H](C)O)NC(=O)[C@H](CCC)NC(=O)[C@H](Cc2ccc(O)cc2)NC(=O)[C@H](CCC(=O)O)NC1=O [Compound 055] ([Mpa][Tle]YHT[Phe(4-guanidino)][Nva]EY[Nva]TC-NH2; linker 1-12 via mXylylene)

# — patent US11505575B2, “Cyclic polypeptides for PCSK9 inhibition” (Merck Sharp & Dohme LLC, priority 2018, dated 2022)
